Experiment [1] deals with human patients having various causes of pulmonary hypertension. The experiment in a line: Clinical study: continuous sildenafil infusion in patients with pulmonary hypertension, PVR and SVR determined. The class given is in vivo. The following applies: infusion to plasma level 100, 300 and 500 ng/ml, FIG. 1. As for the experimental part: A number of patients having various causes of pulmonary hypertension were selected. The patients were then assessed in order to establish baseline data, including haemodynamic parameters (by right heart catheterization), blood gas profile (via an arterial line and pulse oximetry). The patients were then tested with 40 ppm of nitric oxide (NO) by inhilation for 5 minutes to assess the reversibility of pulmonary hypertension. Haemodynamic parameters were reassessed within 5 minutes of NO and then further assessed 5-20 minutes later. When the pulmonary arterial pressure levels had returned to baseline (+−5%) inhalation haemodynamic parameters were assessed again and patients were continuously infused with sildenafil at rates to control the plasma level at 100, 300 and 500 nanogrammes per milliliter. A few patients received placebo instead of sildenafil in double-blind fashion. Haemodynamic parameters were recorded throughout infusion. From the data collected during the trial, the PVR and SVR were determined.

Experiment [2] has as its system hypoxic pulmonary vasoconstriction in anaesthetized Beagle dogs. The experiment in a line: Hypoxic pulmonary vasoconstriction in anaesthetised dogs, intravenous administration. The class given is in vivo, dog. The procedure: The anaesthetized dog is the model of choice in which to study the effect of drugs, owing to the similarity between canine and human haemodynamics, and additionally, to ensure cinsistency between pharmacological and toxicological species.
Beagle dogs of either sex were anaesthetized with intravenous sodium pentobarbitone (Sagatal [trademark], 30 to 45 mg/kg) and anesthesia maintained with an infusion of Sagatal (6 mg/kg/h) into the right femoral vein. The dogs were initially intubated via the mouth, and then via a tracheotomy, and artificially respired using an Ugo Basille dog respirator. […] Respiratory gases (inspired O2 and end tidal CO2) were monitored by a Normocap 200 (trademark) respiratory gas monitor (Datex Instrumentarium Corp.). The depth of anesthesia was assessed by carefully monitoring arterial blood pressure and heart rate. […] Pulmonary artery pressure (PAP) and pulmonary artery wedge pressure were recorded from this catheter. This catheter was also connected to a cardiac index computer (Gould Instruments) and cardiac output determined by thermodilution following rapid injection of 5 ml saline at room temperature. […] Lead II ECG was recorded from 2 stainless steel needles inserted subcutaneously in the right arm and left leg. […] All data from the primary signals (PAP, Arterial blood pressure (ABP) and ECG) was recorded on a Po-ne-mah (trademark) data acquisition system. […]

The test system of experiment [3] is hypoxic pulmonary vasoconstriction in anaesthetized dogs. Description: Hypoxic pulmonary vasoconstriction in anaesthetised dogs, inhaled administration. The following applies: inhaled (nebulised), lowest of doses 30, 80, 230 and 770, hypoxic challenge, FIG. 3. The class given is in vivo, dog. The procedure:
This separate study was performed in analogous fashion to intravenous administration, except that doses were administered into the inspiratory limb of the respiratory circuit using a Penta-sonic Nebuliser (deVilbiss). Each inhaled dose consisted of a timed nebulisation of the solution at a respiration rate of 15 breaths/min finishing 5 min before an hypoxic challenge. Sildenafil and vehicle were administered to a maximum of four dogs per group (i.e. total of eight dogs). At the end of the first vehicle experiment an additional hypoxic challenge was done following administration of an inhaled dose of sildenafil. Doses were made up by dissolving sildenafil in vehicle [sodium acetate buffer (0.038 M)] to the required concentration. Four doses of 30, 80, 230 and 770 microgrammes/weight of dog in kilogrammes were administered.

The test system of experiment [4] is corpus cavernosum of the penis. The following applies: dog model; cited from earlier work.

Take `CCCc1nn(C)c2c(=O)[nH]c(-c3cc(S(=O)(=O)N4CCN(C)CC4)ccc3OCC)nc12` [sildenafil, 5-[2-ethoxy-5-(4-methylpiperazin-1-ylsulfonyl)phenyl]-1,6-dihydro-1-methyl-3-propylpyrazolo[4,3-d]pyrimidin-7-one]: in experiment [1], the “effect on PVR” value is recorded as “significant reduction in PVR” and the “effect on SVR compared with effect on PVR” value is listed as “substantially lower than the effect on PVR”. Besides, the “effect on SVR compared with effect on PVR” value in experiment [2] (FIG. 2) is listed as “significantly lower than on PVP”. The “dose producing maximal effect on PVR (reversing hypoxic pulmonary vasoconstriction)” value in experiment [2] (lowest of doses 1.5, 4.5, 15 and 45, hypoxic challenge) is 1.5 microgrammes/kg. Besides, the “dose producing maximal effect on PVR” value in experiment [3] worked out at 30 microgrammes/kg. The “calculated intravenous dose producing half-maximal potentiation (ED50) of nerve-induced pressure rises” value in experiment [4] is recorded as 12 microgrammes/kg.

These data come from patent publication US20120095006A1, “TREATMENT OF PULMONARY HYPERTENSION” (Pfizer Inc., priority 1999, published 2012).
